In US20230167505A1, “CIRCULATING TUMOR DNA AS A BIOMARKER FOR LEUKEMIA TREATMENT” (Cardiff Oncology, Inc., priority 2020, published 2023):

System: relapsed or refractory (R/R) AML
Experiment: Phase 1b antileukemic activity: bone marrow evaluation, response by modified International Working Group criteria 2003
Type: in vivo, human
Set-up: key to Clinical Response: NR = Non-responder; Responders were defined as patients achieving complete response (BM blasts <5%) with or without count recovery (CR+CRi)
Conditions: for BM % Blasts Log2(C1/C0): end of cycle 1 vs screening
Experimental: Treatment plan and study design: […] Antileukemic activity: […] Response to treatment was evaluated by the investigator using the modified International Working Group criteria 2003, detailed in Table 2. Antileukemic activity was assessed in all patients evaluable for DLTs.

[1] = 20 patients chosen for ctDNA analysis

CN1CCN(c2ccc(OC(F)(F)F)c(Nc3ncc4c(n3)-c3c(c(C(N)=O)nn3CCO)CC4)c2)CC1 [onvansertib, 1-(2-hydroxyethyl)-8-{[5-(4-methylpiperazin-1-yl)-2-(trifluoromethoxy)phenyl]amino}-4,5-dihydro-1H-pyrazolo [4,3-h] quinazoline-3-carboxamide]
Non-Responders, (%) [1]: 70%
Responders, (%) [1]: 30%
patients with PR (LDAC arm): one
patients with ≥50% reduction in bone marrow blasts (LDAC arm, 12 patients): 25%
CRi rate (LDAC arm, 15 patients): 7%
Clinical Response (Patient 01-021): NR
BM % Blasts Log2(C1/C0) (Patient 01-021): −0.8625
Clinical Response (Patient 01-024): NR
BM % Blasts Log2(C1/C0) (Patient 01-024): −0.3219
Clinical Response (Patient 03-037): Responder
BM % Blasts Log2(C1/C0) (Patient 03-037): 0.8301
Clinical Response (Patient 05-016): NR
BM % Blasts Log2(C1/C0) (Patient 05-016): 3.0704
Clinical Response (Patient 05-030): Responder
BM % Blasts Log2(C1/C0) (Patient 05-030): −2.0000
Clinical Response (Patient 05-043): NR
BM % Blasts Log2(C1/C0) (Patient 05-043): −0.4150
Clinical Response (Patient 07-009): Responder
BM % Blasts Log2(C1/C0) (Patient 07-009): −0.0468
Clinical Response (Patient 07-013): NR
Clinical Response (Patient 07-018): NR
Clinical Response (Patient 07-033): NR
Clinical Response (Patient 07-035): Responder
BM % Blasts Log2(C1/C0) (Patient 07-035): −1.7370
Clinical Response (Patient 07-036): NR
BM % Blasts Log2(C1/C0) (Patient 07-036): −1.0000
Clinical Response (Patient 08-027): NR
BM % Blasts Log2(C1/C0) (Patient 08-027): −0.1043
Clinical Response (Patient 08-058): Responder
BM % Blasts Log2(C1/C0) (Patient 08-058): 0.9329
Clinical Response (Patient 09-026): NR
BM % Blasts Log2(C1/C0) (Patient 09-026): 0.3785
Clinical Response (Patient 09-032): NR
BM % Blasts Log2(C1/C0) (Patient 09-032): 0.1454
Clinical Response (Patient 09-064): Responder
BM % Blasts Log2(C1/C0) (Patient 09-064): −3.9069
Clinical Response (Patient 11-019): NR
BM % Blasts Log2(C1/C0) (Patient 11-019): 0.0000
Clinical Response (Patient 11-040): NR
BM % Blasts Log2(C1/C0) (Patient 11-040): 0.4021
Clinical Response (Patient 12-041): NR
BM % Blasts Log2(C1/C0) (Patient 12-041): 0.6951
median duration of CR/CRi (decitabine arm): 5.5 months
median number of cycles to achieve CR/CRi (decitabine arm): 4 cycles
range of duration of CR/CRi (decitabine arm): 1.5-11.5 months
range of number of cycles to achieve CR/CRi (decitabine arm): 1-7 cycles
Overall response rate (ORR: CR, CRi, MLFS, PR) (decitabine arm (7/21 patients)): 33%
patients with ≥50% reduction in bone marrow blasts (decitabine arm, 18 patients with evaluable bone marrow biopsy): 44%
patients with MLFS (decitabine arm, Phase 1b): one
patients with PR (decitabine arm, Phase 1b): one
CR/CRi rate (decitabine arm, Phase 1b, 21 evaluable patients, all doses): 24%
median number of cycles to achieve CR/CRi (responders of both arms (n=6)): 3 cycles
range of number of cycles to achieve CR/CRi (responders of both arms (n=6)): 1-7 cycles
